From paper PMC10906223 (JCI Insight, 2024)
Several values for one entry are separate records, joined by “and”; a condition that tells them apart may be missing. Identical values can stand only once. Like-named read-outs stand apart in the source and are kept apart here.

Columns and labels:
[1] = test system: α cells of NOD mice islets; assay: EphA4 signal in α cells of pancreatic slices of NOD mice; format: in vivo, mouse; conditions: WCDD301-treated NOD mice; diabetic 12.64 ± 1.12, nondiabetic 18.62 ± 1.09
Experimental: Pancreata of NOD mice (females, n = 3 per group) from nondiabetic, diabetic placebo-treated, and diabetic WCDD301-treated cohorts were excised; fixed in 10% buffered formalin for 5 days; and treated with ethanol 70% for 2 days before paraffin embedding. The paraffin-embedded tissue blocks were longitudinally sectioned in 5 μm slices and fixed on microscope slides. Following deparaffinization (through incubation in graded xylene, graded ethanol, and PBS), permeabilization (using 0.1% Triton X-100 in PBS), and background blocking (using 5% BSA solution containing 0.1% Tween 20), samples were incubated with primary antibodies (mouse anti-glucagon, Abcam, catalog ab10988; above-mentioned rabbit anti-EphA4), secondary antibodies (goat anti-mouse IgG Alexa Fluor 488; Invitrogen, catalog A-11001; goat anti-rabbit IgG Alexa Fluor 633, Invitrogen, catalog A-21070), SPY555-Actin (Cytoskeleton, catalog SC202), and DAPI. Image acquisition and analysis were performed as for dispersed islet cells. […] ROIs were manually drawn around each islet, background signal was removed by thresholding, and intensity of glucagon signal was determined and normalized by the islet surface area. To determine sizes of α cells per islet, ROIs were manually drawn around α cells in each islet. […]

[2] = molecular target: T1, EphA4 receptor (Mus musculus, UniProt Q03137); assay: ELISA: binding affinity (Ki) of WCDD301 for EphA4 via bound Ephrin-A5 Fc; set-up: Bound Ephrin (0.1 µM-WCDD301) / Bound Ephrin, raw data: unit not given here; conditions: for Bound Ephrin (0.1 µM-WCDD301): replicates, Figure 1B
T1 construct: purchased R&D Systems 641-A4-200
T1 sequence (Q03137 with tags, fused parts or gaps limits assumed): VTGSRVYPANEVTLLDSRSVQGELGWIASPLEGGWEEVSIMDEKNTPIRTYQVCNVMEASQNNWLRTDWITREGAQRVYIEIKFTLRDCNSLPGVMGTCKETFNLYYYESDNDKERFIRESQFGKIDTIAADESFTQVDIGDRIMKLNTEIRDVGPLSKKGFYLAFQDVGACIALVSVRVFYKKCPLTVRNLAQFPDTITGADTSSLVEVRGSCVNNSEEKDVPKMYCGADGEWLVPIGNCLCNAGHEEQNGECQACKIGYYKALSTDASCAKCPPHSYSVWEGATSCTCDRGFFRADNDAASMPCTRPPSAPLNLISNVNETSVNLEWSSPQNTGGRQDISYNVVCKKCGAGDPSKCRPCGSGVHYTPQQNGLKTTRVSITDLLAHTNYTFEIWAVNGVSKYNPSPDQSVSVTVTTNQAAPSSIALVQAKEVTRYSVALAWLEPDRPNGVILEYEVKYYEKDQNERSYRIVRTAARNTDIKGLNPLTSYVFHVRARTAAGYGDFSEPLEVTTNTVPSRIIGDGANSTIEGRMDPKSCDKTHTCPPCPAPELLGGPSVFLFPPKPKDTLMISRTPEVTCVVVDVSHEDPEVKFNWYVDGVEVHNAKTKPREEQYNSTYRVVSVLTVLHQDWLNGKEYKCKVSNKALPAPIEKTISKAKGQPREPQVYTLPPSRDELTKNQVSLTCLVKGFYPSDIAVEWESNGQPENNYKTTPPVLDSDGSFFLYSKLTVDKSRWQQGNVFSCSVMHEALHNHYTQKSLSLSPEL
Experimental: Wells of the protein A–coated microplate (Pierce, catalog 15132) were washed using 200 μL of binding buffer (PBS supplemented by 0.01% Tween 20). Recombinant mouse EphA4 Fc chimera protein (R&D Systems, catalog 641-A4-200) was reconstituted in 1× PBS (Genesee, catalog 25-507XB, pH 7.2 ± 0.1), diluted to 3 μg/mL using binding buffer, dispensed (100 μL) in each well, and rocked on a belly dancer shaker (3 hours at room temperature, RT). Following 3 washes in the binding buffer, blocking was done using blocking buffer (5% BSA in binding buffer) for 3 hours at RT. Then, after 5 washes, the reconstituted recombinant mouse Ephrin-A5 Fc (R&D Systems, catalog 7396-EA-050) was added (100 μL) into each well and rocked for 2.5 hours on the shaker (Ephrin-A5 Fc concentrations were used as described in the Results section). After 7 washes using binding buffer, alkaline phosphatase–conjugated antibody against Ephrin-A5 was diluted (1:1,000) in the binding buffer plus 2% BSA, added to each well, and incubated at 4°C, overnight. Conjugation of the anti-EFNA5 antibody (Abnova, catalog H00001946-M02; 0.5 mg/mL; target sequence 114–203) was done using Abcam conjugation kit (catalog ab102850) based on the manufacturer’s instruction. After washing 7 times, p-nitrophenyl phosphate tablet (MilliporeSigma, catalog N1891) was reconstituted in 5 mL of PBS and added to each well (100 μL). Following 1 hour shaking at RT in the dark, reaction was stopped by adding 100 μL of 3N NaOH. OD was read at 405 nm within 5 minutes using the microplate reader (Agilent BioTek Cytation 5).
As a control, Fc fragment (BioLegend, catalog 790102) was incubated and used for normalization of data. […] Then, Ki was determined via an approach called finding Ki without global fitting ([58]) by using the following formula: […]
This approach provided a Km value for […] and an estimate for its binding affinity, Ki. To further verify this finding, experiments were designed in the context of 8 nM Ephrin-A5 to determine bound levels of Ephrin-A5 in the presence of WCDD301 (0, 0.1, 0.4, 0.8, and 1.6 μM). Data were normalized and fit by nonlinear regression in GraphPad Prism software version 4 to determine IC50. Then, by using the Cheng-Prusoff equation

[3] = test system: diabetic NOD mice; assay: Hematoxylin-Eosin staining of pancreatic islets of NOD mice; format: in vivo, mouse; conditions: WCDD301-treated diabetic NOD mice
[4] = test system: dispersed islet cells of donors with T1D; assay: Glucagon secretion from dispersed islet cells of donors with T1D; format: cell-based, human; conditions: for Secretion of glucagon: dispersed islet cells, T1D donors, one value per donor, Figure 2H
Experimental: Pancreata of nondiabetic C57BL/6J mice were digested using collagenase P (Roche Diagnostics, catalog 11213873001), and islets were manually picked up using a stereomicroscope (ZEISS Stemi 305). […] Isolated mouse islets or provided human islets were dispersed as described ([28]). Briefly, 100–120 islets were washed 2 times using modified HBSS, then dispersed in 600 μL Accutase (Innovative Cell Technologies, catalog AT-104) by gently pipetting up and down for 7 minutes at 37°C. […] Following refreshing of KRBH, cells were dispensed in 8 microfuge tubes (2,000 cells/tube) and treated with WCDD301, preclustered Ephrin-A5 Fc, or preclustered Fc in the presence or absence of the competitive inhibitor of EphA4 receptor, rhyncophylline ([60]) (MilliporeSigma, catalog SML2345). In the presence or absence of these effectors, secretion assay was performed sequentially as shown in Supplemental Table 5. […] Preclustering of Ephrin-A5 Fc was done by mixing Ephrin-A5 Fc or Fc alone (BioLegend, catalog 790102) with anti-Fc antibody (Invitrogen, catalog A16086) (1:10 molar ratio) 20 minutes before treatment ([62]). […] Shedding of cleaved EphA4 was measured from the cell culture medium. Experiments were performed by dispersion of 200 islets, and EphA4 levels in media were measured by EphA4 ELISA (ABclonal, catalog RK06572).
The Integrated Islet Distribution Program provided us human donor islets with their characteristics (Supplemental Table 6). Islets were centrifuged at 500g for 3 minutes, resuspended in CMRL 1066 medium (Gibco, catalog 1150-037) containing 11 mM glucose, and rested in an incubator overnight.
For the hormone secretion assay, islets or dispersed islet cells were adapted in KRBH buffer containing 11 mM glucose for 1 hour. Then, after 2 washes in HBSS containing 11 mM glucose, islets or cells were treated in the following sequential order in the presence or absence of WCDD301: incubation in KRBH (1 mM glucose, 30 minutes) followed by medium collection, incubation in KRBH (11 mM glucose, 30 minutes) followed by medium collection.

[5] = WCDD301 0.1 µM, 8 nM Ephrin-A5, Figure 1C

SMILES: CC(=O)OCC(N)(COC(C)=O)COC(C)=O [WCDD301, 2-(acetoxymethyl)-2-aminopropane-1,3-diyl diacetate]
- EphA4 signal within α cells [1]: 21.84 ± 1.14 AU
- Ki ([2]; 8 nM Ephrin-A5, Figure 1C, read-out: Ki via Cheng-Prusoff equation): 130 nM
- IC50 ([2]; 8 nM Ephrin-A5, WCDD301 0-1.6 μM, Figure 1C): 210 nM
- Bound Ephrin (0.1 µM-WCDD301) ([2]; EFN 2 nM): 0.08 and 0.079 and 0.05
- Bound Ephrin (0.1 µM-WCDD301) ([2]; EFN 4 nM): 0.057 and 0.077 and 0.06
- Bound Ephrin (0.1 µM-WCDD301) ([2]; EFN 8 nM): 0.119 and 0.122 and 0.09
- Bound Ephrin (0.1 µM-WCDD301) ([2]; EFN 16 nM): 0.141 and 0.136 and 0.1
- Bound Ephrin (0.1 µM-WCDD301) ([2]; EFN 32 nM): 0.235 and 0.22 and 0.2
- Bound Ephrin (0.1 µM-WCDD301) ([2]; EFN 64 nM): 0.301 and 0.295 and 0.32
- Ki ([2]; ELISA with Ephrin-A5 Fc, read-out: Ki, binding affinity for EphA4 receptor): ≤ 130 nM
- Bound Ephrin, normalized [2, 5]: 51.76 and 79.12
- Bound Ephrin, raw data [2, 5]: 0.069 and 0.1
- Bound Ephrin, raw data ([2]; WCDD301 0.4 µM, 8 nM Ephrin-A5, Figure 1C): 0.037 and 0.06 and 0.07
- Bound Ephrin, raw data ([2]; WCDD301 0.8 µM, 8 nM Ephrin-A5, Figure 1C): 0.02 and 0.035 and 0.04
- Bound Ephrin, raw data ([2]; WCDD301 1.6 µM, 8 nM Ephrin-A5, Figure 1C): 0.012 and 0.009 and 0.01
- Mononuclear cell infiltration and edema (Hematoxylin-Eosin) [3]: no mononuclear infiltration or apparent edema
- Effect on glucagon secretion ([4]; dispersed islet cells from donors with long-standing T1D): reduced glucagon secretion
- Secretion of glucagon ([4]; 1 mM glucose): 13.445 and 14.59
- Secretion of glucagon ([4]; 11 mM glucose): 27.55 and 31.85
